Source: patent US20050020544A1, “Bicyclic CB2 cannabinoid receptor ligands” (priority 2002, published 2005)

Key:
Male ICR mice = experiment: Psychomimetic effects: open field locomotor activity and rectal temperature; type: in vivo, mouse; settings: for hypothermia (rectal body temperature): i.v., end of open-field examination
Experimental: Male ICR mice (25 g average body weight, Harlan, Israel) are used for a series of tests for psychotropic effects, specifically locomotor activity and rectal temperature. […] Naïve mice were used as control. Each treatment group is composed of at least 6 animals.
Animals were placed in an open field (60×50 cm) 5 minutes after i.v. administration of the treatment or 30 minutes after i.p. injection. Their locomotor activity was recorded using a video based computer system (ViewPoint, France). The following parameters were recorded for 3 minutes: the total distance, the time and the speed traveled by the animals. An additional parameter, rectal body temperature, was monitored at the end of the open-field examination using a thermostat thermometer (Cole Parker Model 8402-00) and a thermostat probe (YSI 400 Model 402).
Results are expressed as mean±SE and the differences between vehicle and treatments are compared by ANOVA, followed by post-hoc Tukey's test.

male Sprague-Dawley rats = experiment: Chronic constriction nerve injury, neuropathic pain (Von Frey filaments); type: in vivo, rat
From the text: The aim of this study was to assess the potential analgesic effects of the novel bicyclic CB2 binding compounds in an animal model of neuropathic pain. A peripheral monopathy was induced in the right hind limb of rats following a chronic constriction of the sciatic nerve (Bennet, G. J. & Xie, Y-K., Pain 33: 87-107, 1988). The development of mechanical allodyna was monitored using an established behavioral test (Von Frey filaments).
Pre-surgery baseline values were ascertained as the mean of 2 pre-surgery values. Once the baseline values had been established, the animals were surgically prepared by constricting the right sciatic nerve with 4 chromic cat gut loose ligatures.
The design was randomized, performed in a masked fashion as to whether drug or vehicle is being given. The animals, male Sprague-Dawley rats (average body weight 240-290 g), were allowed to acclimatize to the behavioral testing equipment prior to testing. On the testing day, the animals, at least six per treatment group, were given i.p. a single dose of one of the test compounds in a volume of 2.5 ml/kg. Fifteen minutes later, a series of Von Frey filaments (pre-calibrated prior to testing) were applied to the plantar surface of the hind paw, from below. The filaments were applied in ascending order starting with the weakest force and the withdrawal threshold for both the ipsilateral and contralateral hind paws was evaluated. Each filament was indented on the mid-plantar surface of the foot to the point where it just starts to bend; this is repeated approximately 8-10 times per filament at a frequency of approximately 1 Hz. The withdrawal threshold is defined as being the lowest force of two or more consecutive Von Frey's filaments to elicit a reflex withdrawal response (i.e. a brief paw flick) and is measured in grams.
The results are expressed as % increase in the threshold of response to Von Frey's filaments in the test compound treated group versus the vehicle treated animals and per definition the vehicle treated group yields a null baseline value. The black column represents the morphine treated animals (4 mg/kg), the gray and the dotted column bars represent two doses of compound A (0.5 and 1 mg/kg respectively).

[1] = tested on: IL-1β secretion from activated RAW 264.7 macrophages; experiment: Inhibition of IL-1β in LPS activated macrophages (ELISA); type: cell-based; settings: Mus musculus, RAW264.7, 24 h, read-out: inhibition of IL-1β secretion
Experimental: The technique used to quantify the amount of a given protein in a liquid sample, either tissue culture supernatant or body fluid, is based on Enzyme Linked ImmunoSorbent Assay (ELISA) methodology. Either commercially available or established in house, the assay is based on the capture of the protein of interest by specific antibodies bound to the bottom of an ELISA plate well. […] Again the unbound material is washed away, the samples are then incubated with the appropriate substrate yielding a calorimetric reaction. The reaction is stopped and reading is performed in a spectrophotometer at the appropriate wavelength. Samples are tested at least in duplicate and the appropriate standard curve, consisting of serial dilutions of the recombinant target protein, is incorporated on each plate. Concentration of the protein in the sample is calculated from the standard curve.
RAW 264.7 macrophages, a mouse cell line (ATCC # TIB-71), were grown in Dulbecco's modified Eagle's medium (DMEM) with 4 mM L-glutamine adjusted to contain 1.5 g/L sodium bicarbonate, 4.5 g/L glucose, and 10% heat inactivated fetal bovine serum. Cells were grown in tissue culture flasks and seeded at appropriate density into 24 wells tissue culture plates. 0.5×10^6 Raw cells in one milliliter were stimulated with 2 μg/ml Lipopolysaccharide E. coli 055:B5 (DIFCO Laboratories). The mouse macrophages were pre-treated for one hour with controls or 10 μM of bicyclic CB2 ligands and later on activated with LPS. Dexamethasone was used as a positive control at 50 nM. Supernatant was collected 4 hours (for PGE2) and 24 hours (for IL-1β and TNF-α) after activation, and the levels of the inflammatory agent under study were determined by ELISA, as previously described. Inhibition was calculated versus vehicle treated cells.

adult male ICR mice = experiment: Ear edema model (Croton oil); type: in vivo, mouse; settings: 3 hours after Croton oil
Experimental: The anti-inflammatory activity of the novel bicyclic CB2 ligands was screened in vivo using an ear edema model in mice. This test system utilizes various inflammation inducers, including Croton oil (CO) and Arachidonic acid (AA) and the outcome is assessed by measuring ear tissue swelling. […] The ability of the test compounds to prevent or diminish the inflammatory response to these stimulants is indicative of their systemic anti-inflammatory capability.
Compound A was dissolved in CREMOPHOR EL®:ethanol and injected i.p. in adult male ICR mice (30 g average body weight, Harlan, Israel) after dilution with sterile 0.9% sodium chloride to desired final concentrations according to required doses. Various doses of compounds were checked ranging from 0 to 30 mg/kg. Each treatment group was composed of 8-10 animals while the vehicle treated group was composed of 16 animals. […] Ear thickness was determined (in 0.01 mm units) 3 hours after CO application using a dial thickness gauge (Mitutoyo, Japan). Finally the ears were trimmed, an ear punch of 6 mm diameter was removed and its weight was measured. The ear edema is expressed as the ratio of ear punch weight of the CO treated ear versus the contralateral Acetone treated ear. Results are calculated as % inhibition as compared to CREMOPHOR EL®:ethanol vehicle treated animals.

CCCCCCC(C)(C)c1cc(O)c([C@H]2CC(=O)[C@H]3C[C@@H]2C3(C)C)c(OC(=O)CCC(=O)O)c1 [Compound R, (−)-4-{4-[1,1-Dimethyl-heptyl]-2-succinate-6-hydroxy-phenyl}-6,6-dimethyl-bicyclo[3.1.1]heptan-2-one]
total distance covered (Male ICR mice; 1, 2, 3, 4, 5 and 6 mg/kg i.v., 3 minutes open field): fluctuations in total distance covered and again this phenomenon had no statistical significance
hypothermia (rectal body temperature) (Male ICR mice): about 2 °C

CCCCCCC(C)(C)c1cc(OC)c(C2C=C(CO)C3CC2C3(C)C)c(OC)c1 (single isomer, unassigned; (+)) [HU-308, (+) {4-[4-(1,1-dimethylheptyl)-2,6-dimethoxy-phenyl]-6,6-dimethyl-bicyclo[3.1.1]hept-2-en-2-yl}-methanol, reference compound]
increase in pain threshold (Von Frey) versus vehicle (male Sprague-Dawley rats; 5 mg/kg, separate experiment): 117%

CCCCCCC(C)(C)c1cc(O)c(C2CC(=O)C3CC2C3(C)C)c(O)c1 (single isomer, unassigned; (-)) [Compound A, (−)-4-[4-(1,1-Dimethyl-heptyl)2,6-dihydroxy-phenyl]-6,6-dimethyl-bicyclo[3.1.1)heptan-2-one]
hypothermia (rectal body temperature) (Male ICR mice): about 2 °C
inhibition at 10 µM [1]: 76%
ED50 (adult male ICR mice; Mus musculus, ip): 30 mg/kg
ED50 ear edema (adult male ICR mice; i.p.): 81 µmol/kg
increase in pain threshold (Von Frey) versus vehicle (male Sprague-Dawley rats; 0.5 mg/kg i.p., 15 minutes): 71%
increase in pain threshold (Von Frey) versus vehicle (male Sprague-Dawley rats; 1 mg/kg i.p., 15 minutes): 64%
